Results published in article PMC7005646, “Overcoming resistance to anabolic SARM therapy in experimental cancer cachexia with an HDAC inhibitor” (EMBO Molecular Medicine, 2020).

Experiments:
C‐26 tumor‐bearing mice [1] = assay: Initial AR‐42/GTx‐024 combination study (Study 1), male C‐26 tumor‐bearing mice; type: in vivo, mouse; conditions: Study 1, male, GTx‐024 15 mg/kg, AR‐42 10 mg/kg, or both
LLC tumor‐bearing mice = assay: AR‐42/GTx‐024 combination study in the LLC cachexia model (Study 5); type: in vivo, mouse; conditions: repeat of Study 5; 10 mg/kg AR‐42, 0.5 mg/kg GTx‐024, or both
Protocol: This study was performed as previously described (Tseng et al, 2015a) with modifications. Tumors were established in the right hindlimb of male C57BL/6NHsd mice by intramuscular injection of LLC cells (0.5 × 10^6 cells in 0.05 ml). Similar to Study 3, the tumor‐free control group was maintained at six animals, whereas 12 animals were included in each of the tumor‐bearing groups. […] Grip strength, body weight, and food consumption were measured, and tissues were collected as in the previous C‐26 studies.

C‐26 tumor‐bearing mice [2] = assay: AR‐42 dose–response study in the C‐26 cachexia model; type: in vivo, mouse
Protocol: These studies were performed as previously described (Tseng et al, 2015a) with modifications. Tumors were established in the right flank of CD2F1 mice by subcutaneous injection of C‐26 cells (0.5 × 10^6 cells in 0.1 ml). […] TFM‐4AS‐1 (a potent experimental SARM), DHT, and vehicles were administered by subcutaneous injection.
Therefore the efficacy and associated exposures of reduced doses of AR‐42 were determined. Male CD2F1 mice were stratified by body weight and then randomly assigned into five groups of six animals each. C‐26 tumors were established in four of the groups, while those in the fifth group, serving as tumor‐free controls, were injected with sterile saline. Six days later, animals with palpable tumors were treated with AR‐42 once daily at 10 (n = 5) and 20 mg/kg (n = 6), and every other day at 50 mg/kg (n = 5, the originally described anti‐cachectic dose; Tseng et al, 2015a), or vehicle control (n = 4) for 13 days. Upon sacrifice on study day 18, when the majority of tumor‐bearing control mice met euthanasia criteria, the left gastrocnemius muscle was excised, flash‐frozen in liquid nitrogen, and stored at −80°C for subsequent analyses. Carcass weights were corrected for tumor weight by assuming a tumor density equivalent to water (1 g/cm^3). […] This study was performed as described above with animals treated with AR‐42 once daily at 1, 3, and 10 mg/kg or with vehicle control (n = 8).

[3] = test system: atrogin‐1, MuRF‐1, CEBPδ expression; assay: qRT–PCR of atrophy‐related genes in gastrocnemius, Study 1; type: in vivo, mouse; conditions: GTx‐024 15 mg/kg, AR‐42 10 mg/kg, or both
Protocol: To generate muscle tissue RNA, 15 mg of gastrocnemius muscle tissue was lysed in 10 volumes of lysis buffer per tissue mass in prefilled 2.0‐ml tubes with 3.0 mm zirconium beads (MIDSCI; St. Louis, MO). Tubes were loaded into BeadBlaster™ 24 (MIDSCI; St. Louis, MO) and […] for five cycles of 5 s with a 30‐s pause between cycles. Lysate was collected, and RNA was isolated using the mirVana™ miRNA Isolation Kit, with phenol (Thermo Fisher; Waltham, MA). Samples were treated with DNA‐free DNA Removal Kit to eliminate any DNA contamination (Invitrogen, Carlsbad, CA). Total RNA (0.5 μg) was reverse‐transcribed using high‐capacity cDNA reverse transcription kit (Applied Biosystems, Foster City, CA) for 10 min at 25°C, 120 min at 37°C, and 5 min at 85°C (T100™ Thermal Cycler, Bio‐Rad). Real‐time qPCR was performed on the QuantStudio 7 system (Applied Biosystems, Foster City, CA) using the powerup SYBR Green Master Mix (Applied Biosystems, Foster City, CA). Cycling was performed using the QuantStudio 7 real‐time PCR software—2 min at 50°C and 10 min at 95°C—followed by 40 cycles of 15 s at 95°C and 1 min at 60°C. […] As transformed expression data are not normally distributed, statistical differences between treatment groups were determined by one‐way ANOVA followed by Dunnett's test on raw delta C t values.

IIb HDACs = assay: In vitro HDAC inhibition assay, class IIb isoforms; type: biochemical, human; conditions: 1 μM AR‐42; range over isoforms
Protocol: HDAC activity was measured by a commercial vendor using human recombinant HDAC enzymes and fluorogenic HDAC substrates (Eurofins Cerep SA, Celle L'Evescault, France). Substrate concentrations ranged from 20 to 400 μM, and incubation conditions ranged from 10 to 90 min (RT or 37°C), depending on isoform. Results are expressed as percent inhibition of control specific activity in the presence of 1 μM AR‐42.

pSTAT3 (Y705) = assay: pSTAT3/tSTAT3 Western blot of gastrocnemius muscle; type: in vivo, mouse
Protocol: Western blots from all studies were performed on gastrocnemius muscle from representative animals lysed by Nonidet P‐40 isotonic lysis buffer [50 mM Tris–HCl, pH 7.5, 120 mM NaCl, 1% (v/v) Nonidet P‐40, 1 mM EDTA, 50 mM NaF, 40 mM glycerophosphate, and […] each of protease inhibitors (aprotinin, pepstatin, and leupeptin)]. Equivalent amounts of protein from each sample, as determined by the Bradford assay (Bio‐Rad), were resolved by SDS–PAGE and then transferred (semi‐dry) onto Immobilon nitrocellulose membranes (Millipore, Bellerica, MA). Membranes were washed twice with TBST [Tris‐buffered saline (TBS) containing 0.1% Tween‐20], blocked with 5% non‐fat milk in TBST for 1 h, and then washed an additional three times. Membranes were incubated with specific primary antibody in TBST (1:1,000) at 4°C overnight, washed three times (TBST), and then incubated with appropriate goat anti‐rabbit or anti‐mouse IgG–horseradish peroxidase‐conjugated secondary antibodies (1:5,000) at room temperature (1 h). Following additional washes (TBST), immunoblots were visualized as appropriate by ECL chemiluminescence (Amersham Biosciences, Little Chalfont, United Kingdom) or Duration HRP Chemiluminescence (Alkali Scientific, Florida, United States). Primary antibodies: phospho‐STAT3 (Tyr705) (D3A7) XP® rabbit mAb #9145, STAT3 (124H6) mouse mAb #9139 (Cell Signaling Technology, Danvers, MA); α‐tubulin (B‐7), sc‐5286 (Santa Cruz Biotechnologies, Santa Cruz, CA); androgen receptor (EP670Y), ab52615 (Abcam, Cambridge, MA) and GAPDH (6C5), sc‐32233 (Santa Cruz Biotechnologies, Santa Cruz, CA).

Compound: CC(C)[C@H](C(=O)Nc1ccc(C(=O)NO)cc1)c1ccccc1 [AR‐42]
- terminal body weight corrected for tumor mass (C‐26 tumor‐bearing mice [1]; day 18, 13 days daily oral): 91.2 ± 3.7 % of tumor‐free controls
- terminal gastrocnemius mass (C‐26 tumor‐bearing mice [1]; day 18): 94.3 ± 1.4 % of tumor‐free controls
- terminal quadriceps mass (C‐26 tumor‐bearing mice [1]; day 18): 93.2 ± 6.3 % of tumor‐free controls
- response of body weight and skeletal muscle mass loss (LLC tumor‐bearing mice): did not respond
- minimally efficacious dose (anti‐cachectic) (C‐26 tumor‐bearing mice [2]; daily oral, 13 days, C‐26 model): 10 mg/kg
- effect on C‐26 tumor‐mediated reductions in tumor‐corrected body weight and gastrocnemius mass (C‐26 tumor‐bearing mice [2]; lower doses (1, 3 mg/kg daily)): not effective
- effect on C‐26 tumor‐mediated reductions in tumor‐corrected body weight and gastrocnemius mass (C‐26 tumor‐bearing mice [2]; thirteen daily oral doses of 20 or 10 mg/kg): ameliorated
- atrogin‐1, MuRF‐1, CEBPδ expression in gastrocnemius relative to tumor‐bearing controls [3]: significantly reduced
- inhibition of class IIb HDACs (IIb HDACs): 86–100%
- pSTAT3 in gastrocnemius (pSTAT3 (Y705); female C‐26 tumor‐bearing mice, Study 3): reduced levels of pSTAT3 activation
- pSTAT3 in gastrocnemius (pSTAT3 (Y705); male C‐26 tumor‐bearing mice, Study 1): reduced pSTAT3 but not equally in all animals
